# In US10344330B2, “Glatiramer acetate response biomarker mRNA potency assay” (Mylan Inc., priority 2013, dated 2019):
# B1: MBP: myelin basic protein, a negative control (protein, UniProt P02686 1-304, looked up)
# Myelin basic protein: MGNHAGKRELNAEKASTNSETNRGESEKKRNLGELSRTTSEDNEVFGEADANQNNGTSSQDTAVTDSKRTADPKNAWQDAHPADPGSRPHLIRLFSRDAPGREDNTFKDRPSESDELQTIQEDSAATSESLDVMASQKRPSQRHGSKYLATASTMDHARHGFLPRHRDTGILDSIGRFFGGDRGAPKRGSGKDSHHPARTAHYGSLPQKSHGRTQDENPVVHFFKNIVTPRTPPPSQGKGRGLSLSRFSWGAEGQRPGFGYGGRASDYKSAHKGFKGVDAQGTLSKIFKLGGRDSRSGSPMARR
# Legend:
# [1] = system: mouse IL-4 mRNA in primary LN cells; assay: Validation: mouse IL-4 mRNA by real-time PCR in LN cells of GA-immunized SJL/J mice (Example IV); format: cell-based; details: for induction of IL-4 mRNA: 20 μg/mL GA, 6 hours; for IL-4 mRNA Fold Change: normalized to GAPDH
# Procedure: (§1) Three experiments were conducted using one batch of GA (Mylan GMA). The primary LN cells were stimulated by incubation with 6 concentrations (0.3 to 20 μg/mL) of the GA for 6 hours at 37° C. Total RNA was isolated from LN cells stimulated with GA or controls. cDNA was synthesized from the RNA and the mRNA levels of seven mouse cytokines, IL-2, IL-4, IL-5, IL-10, IL-13, interferon (IFN)-γ and tumor necrosis factor (TNF)-α, were quantitatively measured by a real-time PCR method.
# (§2) Female SJL/J mice at 8-9 weeks of age were immunized by injection into four footpads using a 1 mL syringe with a 27-G, ½-inch needle. Each mouse received a total injection volume of 0.1 mL of GMA emulsified in CFA (about 10 μL into each of the front footpads and 40 μL into each of the hind footpads). Animals were immunized on Day 0. After injection, animals were placed back in their cages and housed ≤6 animals per cage.
# (§3) Immunized animals were sacrificed by cervical dislocation on Day 10 following immunization. […] After centrifugation at about 200×g for 10 minutes at 4° C., the cell pellet was re-suspended in 40 mL of DCCM-1 medium for cell counting. A Trypan blue exclusion method was used to determine the cell density of viable cells in the suspension. After cell counting, the LN cells were suspended in enriched DCCM-1 medium at density of 7.5×10^6 cells/mL. LN cells (0.12 mL) were plated into each well of 96-well tissue culture plates.
# (§4) Dilutions of GA (Mylan GMA) were prepared using enriched DCCM-1 medium as the diluent. GA dilutions (0.12 mL) were added in the assigned wells of 96-well tissue culture plates. The same volume of LN cells (0.12 mL) isolated from immunized animals was added to the assigned wells. A positive control and a negative control were always performed in the same assay by treating LN cells with 2.5 μg/mL ConA and 10 μg/mL MBP, respectively. The LN cells with mock stimulation protocols (enriched DCCM-1 medium) were used to monitor the background mRNA level of a cytokine. The plates were incubated at 37° C. in a humidified 5% CO2 incubator for 6 hr.
# (§5) At the end of incubation time, culture medium from stimulated cells was removed by aspiration and the cells were lysed using Qiagen or Promega lysis buffer. The lysate was transferred to an RNeasy Mini column (Qiagen) or wells of the SV 96 Binding Plate (Promega) for RNA isolation and cDNA synthesis. All tested samples were run in triplicate.
# (§6) The SV 96 Total RNA Isolation System (Promega; Cat. No. Z3505) was used for total RNA isolation. Assay procedures were carried out according to each manufacturer's protocol. RNA samples were stored at −70° C. until use. […] The assay procedure was carried out according to the manufacturer's protocol.
# (§7) The plate was centrifuged at 2000 rpm for 2 minutes at 4° C. to spin down the contents and eliminate air bubbles. Samples were prepared and run in a 96-well plate using a Life Technologies Real-Time PCR system (previously Applied Biosystems; Model No. 7500) according to the manufacturer's recommendation. The mix for the reference gene was prepared in the same way using the reference gene primer.
# (§8) A relative quantitation method was used to analyze changes in mIL-2, mIL-4, mIL-5, mIL-10, mIL-13, mIFN-γ and TNF-α expression in GA treated samples relative to the untreated control (Enriched DCCM-1 treated) samples using the following program:
# (§9) Levels of mouse cytokine amplicons were normalized to an internal probe level (GAPDH) from the same samples. The following equations were used to calculate the relative increase in response to GA stimulation compared to the control sample (Enriched DCCM1 sample): […]
# [2] = system: mouse IFN-γ mRNA in primary LN cells; assay: Validation: mouse IFN-γ mRNA by real-time PCR in LN cells of GA-immunized SJL/J mice (Example IV); format: cell-based; details: for IFN-γ mRNA Fold Change: normalized to GAPDH
# Procedure: as §1, §2, §3, §4, §5, §6, §7, §8, §9
# [3] = system: mouse IL-13 mRNA in primary LN cells; assay: Validation: mouse IL-13 mRNA by real-time PCR in LN cells of GA-immunized SJL/J mice (Example IV); format: cell-based; details: for induction of IL-13 mRNA: 20 μg/mL, 6 hours; for IL-13 mRNA Fold Change: normalized to GAPDH
# Procedure: as §1, §2, §3, §4, §5, §6, §7, §8, §9
# [4] = system: IL-12 (total) secreted by LN cells; assay: IL-12 (total) secretion by GA-stimulated LN cells, MSD 9-plex ELISA (Example II); format: cell-based, mouse; details: for IL-12 (total) secretion response ratio (treated cell medium to control DCCM1 medium): 21 hr
# Procedure: Animals at 8 weeks of age were immunized by injection into four footpads using a 1 mL syringe with a 27-G, 1⁄2-inch needle. […] Ten days post-immunization, immunized animals were sacrificed via cervical dislocation. […] The LN cells were isolated by pressing the LN with the plunger end of a sterile syringe. […] Trypan blue exclusion method was used to determine the cell density of viable cells in the suspension. […] Cat. […] LN cells were plated into a 24-well tissue culture plate for drug stimulation. […] Cell debris was removed by centrifugation at ca. 200×g for 10 minutes at 4° C. Cytokines secreted by treated cells were determined on the day of collection by ELISA using mouse TH 1/TH 2 9-Plex Tissue Culture Kit (Meso Scale Discovery; Cat No. […]-2, Lot #: K0032839) which detects Th1 cytokines (IFN-γ, IL-2, IL-12, IL-1β, TNF-α, CXCL1) and Th2 cytokines (IL-4, IL-5 and IL-10). For IFN-γ, culture media also were assayed at 45 hours using mouse IFN-γ Tissue Culture Kit (Meso Scale Discovery; Cat No. […] For the positive control, 0.5 mL of LN cells (5×10^6 cells/well) were treated with 0.5 mL of ConA (5 μg/mL). For the negative control, 0.5 mL of LN cells (5×10^6 cells/well) were treated with 0.5 mL of MBP (20 μg/mL). The LN cells with mock stimulation (enriched DCCM1 medium) were used to monitor the background level of a cytokine. For the cytokine assays, calibration standards or samples were incubated in the MULTI-SPOT or the SINGLE-SPOT plate and each cytokine bound to its corresponding capture antibody. All test samples were run in duplicate. The amount of each cytokine on its distinct spot was quantified using a cytokine-specific detection antibody labeled with MSD SULFO-TAGTM reagent. Electrochemiluminescent signals from immobilized SULFO-TAGTM-labeled complexes on each spot from each well were captured by the MSD SECTOR Imager 6000, which produces a signal directly proportional to the amount of captured cytokine in a test sample. The levels of cytokines in test samples were derived by interpolation from calibration curves with calibration standards of known concentrations using reagents provided with the MSD kits. Kits were used according to the manufacturer's protocols. […] Data are expressed as a response ratio of cytokine concentration in treated cell medium to control DCCM1 medium.
# [5] = SJL/J, different concentrations of GA vs unstimulated LN cells
# [6] = BALB/cByJ, immunized GA Intraplantar
# [7] = BALB/cByJ, immunized GA Lower Limb
# [8] = BALB/cByJ, immunized Mannitol Intraplantar
# [9] = C57BL10J, immunized GA Intraplantar
# [10] = C57BL10J, immunized GA Lower Limb
# [11] = C57BL10J, immunized Mannitol Intraplantar
# [12] = CD-1, immunized GA Intraplantar
# [13] = CD-1, immunized Mannitol Intraplantar
# [14] = SJL/J, MBP 10 μg/mL, all PCR runs
molecule,measurement,setting,value
"L-glutamic acid polymer with L-alanine, L-lysine and L-tyrosine, acetate (salt) [GA]",induction of IL-4 mRNA,"[1]; SJL/J, Exp 1",41.3 fold
same,induction of IL-4 mRNA,"[1]; SJL/J, Exp 2",11.8 fold
same,induction of IL-4 mRNA,"[1]; SJL/J, Exp 3",27.6 fold
same,induction of IL-4 mRNA (in words),[1]; [5],robust induction
same,induction of IFN-γ mRNA (in words),[2]; [5],weak induction
same,induction of IFN-γ mRNA,"[2]; SJL/J, stimulation with 2.5 to 10 μg/mL GA, three experiments",≥ 2 fold
same,induction of IL-13 mRNA,"[3]; SJL/J, Exp 1",17.6 fold
same,induction of IL-13 mRNA,"[3]; SJL/J, Exp 2",21.3 fold
same,induction of IL-13 mRNA,"[3]; SJL/J, Exp 3",33.9 fold
same,induction of IL-13 mRNA (in words),[3]; [5],robust induction
same,"IL-12 secretion, dose response to GA (in words)",[4]; cells from any of the three mouse strains,No dose response
"Concanavalin A [ConA, reference compound]",IL-4 mRNA Fold Change,"[1]; Experiment 1, 2.5 μg/mL",148.6 fold
same,IL-4 mRNA Fold Change,"[1]; Experiment 2, 2.5 μg/mL",21.0 fold
same,IL-4 mRNA Fold Change,"[1]; Experiment 3, 2.5 μg/mL",53.8 fold
same,IFN-γ mRNA Fold Change,"[2]; Experiment 1, 2.5 μg/mL",1.9 fold
same,IFN-γ mRNA Fold Change,"[2]; Experiment 2, 2.5 μg/mL",1.6 fold
same,IFN-γ mRNA Fold Change,"[2]; Experiment 3, 2.5 μg/mL",2.6 fold
same,IL-13 mRNA Fold Change,"[3]; Experiment 1, 2.5 μg/mL",40.9 fold
same,IL-13 mRNA Fold Change,"[3]; Experiment 2, 2.5 μg/mL",32.4 fold
same,IL-13 mRNA Fold Change,"[3]; Experiment 3, 2.5 μg/mL",50.9 fold
same,IL-12 (total) secretion response ratio (treated cell medium to control DCCM1 medium),[4]; [6],1.66
same,IL-12 (total) secretion response ratio (treated cell medium to control DCCM1 medium),[4]; [7],1.10
same,IL-12 (total) secretion response ratio (treated cell medium to control DCCM1 medium),[4]; [8],1.44
same,IL-12 (total) secretion response ratio (treated cell medium to control DCCM1 medium),[4]; [9],1.88
same,IL-12 (total) secretion response ratio (treated cell medium to control DCCM1 medium),[4]; [10],1.01
same,IL-12 (total) secretion response ratio (treated cell medium to control DCCM1 medium),[4]; [11],0.92
same,IL-12 (total) secretion response ratio (treated cell medium to control DCCM1 medium),[4]; [12],1.09
same,IL-12 (total) secretion response ratio (treated cell medium to control DCCM1 medium),"[4]; CD-1, immunized GA Lower Limb",1.91
same,IL-12 (total) secretion response ratio (treated cell medium to control DCCM1 medium),[4]; [13],1.80
B1,IL-4 mRNA Fold Change,"[1]; Experiment 1, 10 μg/mL",2.7 fold
same,IL-4 mRNA Fold Change,"[1]; Experiment 2, 10 μg/mL",0.8 fold
same,IL-4 mRNA Fold Change,"[1]; Experiment 3, 10 μg/mL",1.1 fold
same,IFN-γ mRNA Fold Change,"[2]; Experiment 1, 10 μg/mL",0.8 fold
same,IFN-γ mRNA Fold Change,"[2]; Experiment 2, 10 μg/mL",1.3 fold
same,IFN-γ mRNA Fold Change,"[2]; Experiment 3, 10 μg/mL",1.1 fold
same,IFN-γ mRNA expression level in response to MBP treatment,[2]; [14],≤ 2 fold
same,IL-13 mRNA Fold Change,"[3]; Experiment 1, 10 μg/mL",0.9 fold
same,IL-13 mRNA Fold Change,"[3]; Experiment 2, 10 μg/mL",1.4 fold
same,IL-13 mRNA Fold Change,"[3]; Experiment 3, 10 μg/mL",1.2 fold
same,IL-13 mRNA expression level in response to MBP treatment,[3]; [14],≤ 2 fold
same,IL-12 (total) secretion response ratio (treated cell medium to control DCCM1 medium),[4]; [6],1.09
same,IL-12 (total) secretion response ratio (treated cell medium to control DCCM1 medium),[4]; [7],1.04
same,IL-12 (total) secretion response ratio (treated cell medium to control DCCM1 medium),[4]; [8],1.05
same,IL-12 (total) secretion response ratio (treated cell medium to control DCCM1 medium),[4]; [9],1.18
same,IL-12 (total) secretion response ratio (treated cell medium to control DCCM1 medium),[4]; [10],1.19
same,IL-12 (total) secretion response ratio (treated cell medium to control DCCM1 medium),[4]; [11],1.13
same,IL-12 (total) secretion response ratio (treated cell medium to control DCCM1 medium),[4]; [12],1.22
same,IL-12 (total) secretion response ratio (treated cell medium to control DCCM1 medium),"[4]; CD-1, immunized GA Lower Limb",1.18
same,IL-12 (total) secretion response ratio (treated cell medium to control DCCM1 medium),[4]; [13],0.99
